These results are taken from patent publication US20040127395A1 (priority 2002, published 2004).

This test concerns the target human histamine H4 receptor (Homo sapiens, UniProt Q9H3N8). The experiment in a line: biochemical.

Sequence of human histamine H4 receptor (Q9H3N8 whole entry): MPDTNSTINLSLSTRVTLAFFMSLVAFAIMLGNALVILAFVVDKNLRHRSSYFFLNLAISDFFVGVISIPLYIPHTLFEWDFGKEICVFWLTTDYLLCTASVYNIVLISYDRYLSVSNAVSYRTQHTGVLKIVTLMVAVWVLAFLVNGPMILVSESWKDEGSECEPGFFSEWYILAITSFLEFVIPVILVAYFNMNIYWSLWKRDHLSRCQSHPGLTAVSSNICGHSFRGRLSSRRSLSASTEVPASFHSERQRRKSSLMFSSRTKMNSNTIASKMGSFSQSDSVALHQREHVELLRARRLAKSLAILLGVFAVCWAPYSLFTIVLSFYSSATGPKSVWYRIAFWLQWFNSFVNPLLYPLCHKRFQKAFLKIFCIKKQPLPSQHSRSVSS

As a reminder, the Ki is the dissociation constant of the complex between target and ligand, obtained from inhibition or displacement. Turning to `CC1CN(C(=O)c2cc3ccccc3[nH]2)CCN1` (stereo not drawn) [(1H-Indol-2-yl)-(3-methyl-piperazin-1-yl)-methanone], the Ki was determined as 100 nM.
The same measure for `CN1CCN(C(=S)c2cc3ccccc3[nH]2)CC1` [(1H-Indol-2-yl)-(4-methyl-piperazin-1-yl)-methanethione]: 132 nM; for `CN1CCN(C(=O)c2cc3c(Cl)c(Cl)ccc3[nH]2)CC1` [(4,5-Dichloro-1H-indol-2-yl)-(4-methyl-piperazin-1-yl)-methanone]: 11 nM.
The compound `CN1CCN(C(=O)c2cc3c(Br)cccc3[nH]2)CC1` [(4-Bromo-1H-indol-2-yl)-(4-methyl-piperazin-1-yl)-methanone] displayed a Ki of 40 nM.
The same measure for `CN1CCN(C(=O)c2cc3cc([N+](=O)[O-])ccc3[nH]2)CC1` [(4-Methyl-piperazin-1-yl)-(5-nitro-1H-indol-2-yl)-methanone]: 46 nM; for `CN1CCN(C(=O)c2cc3cc(Cl)cc(Cl)c3[nH]2)CC1` [(5,7-Dichloro-1H-indol-2-yl)-(4-methyl-piperazin-1-yl)-methanone]: 10 nM.
The same measure for `Cc1cc(C)c2[nH]c(C(=O)N3CCN(C)CC3)cc2c1` [(5,7-Dimethyl-1H-indol-2-yl)-(4-methyl-piperazin-1-yl)-methanone]: 30 nM.
The same measure for `CN1CCN(C(=O)c2cc3cc(Br)ccc3o2)CC1` [(5-Bromo-benzofuran-2-yl)-(4-methyl-piperazin-1-yl)-methanone]: 95 nM; for `CC1CN(C(=O)c2cc3cc(Cl)ccc3[nH]2)CCN1C` (stereo not drawn) [(5-Chloro-1H-indol-2-yl)-(3,4-dimethyl-piperazin-1-yl)-methanone]: 27 nM; for `CC1CN(C(=O)c2cc3cc(Cl)ccc3[nH]2)CCN1` (stereo not drawn) [(5-Chloro-1H-indol-2-yl)-(3-methyl-piperazin-1-yl)-methanone]: 41 nM.
As to `C[C@@H]1CN(C(=O)c2cc3cc(Cl)ccc3[nH]2)CCN1` [(5-Chloro-1H-indol-2-yl)-((R)-3-methyl-piperazin-1-yl)-methanone], the Ki was found to be 34 nM.
The compound `C[C@H]1CN(C(=O)c2cc3cc(Cl)ccc3[nH]2)CCN1` [(5-Chloro-1H-indol-2-yl)-((S)-3-methyl-piperazin-1-yl)-methanone] displayed a Ki of 36 nM.
The same measure for `O=C(c1cc2cc(Cl)ccc2[nH]1)N1CCN(CCO)CC1` [(5-Chloro-1H-indol-2-yl)-[4-(2-hydroxy-ethyl)-piperazin-1-yl]-methanone]: 25 nM; for `CN1CCN(C(=O)c2cc3cc(F)ccc3[nH]2)CC1` [(5-Fluoro-1H-indol-2-yl)-(4-methyl-piperazin-1-yl)-methanone]: 18 nM.
Compound `CN1CCN(C(=O)c2cc3cc(O)ccc3[nH]2)CC1` [(5-Hydroxy-1H-indol-2-yl)-(4-methyl-piperazin-1-yl)-methanone] came in with an inhibitory constant (Ki) of 19 nM.
For `Cc1ccc2[nH]c(C(=O)N3CCN(C)CC3)cc2c1` [(5-Methyl-1H-indol-2-yl)-(4-methyl-piperazin-1-yl)-methanone], the Ki was 11 nM.
For `CN1CCN(C(=O)c2cc3ccc(Br)cc3[nH]2)CC1` [(6-Bromo-1H-indol-2-yl)-(4-methyl-piperazin-1-yl)-methanone], the Ki turned out to be 188 nM.
For the compound `CN1CCN(C(=O)c2cc3ccc(Cl)cc3[nH]2)CC1` [(6-Chloro-1H-indol-2-yl)-(4-methyl-piperazin-1-yl)-methanone], the affinity, expressed as Ki, was 124 nM.
The same measure for `CN1CCN(C(=O)c2cc3ccc(O)cc3[nH]2)CC1` [(6-Hydroxy-1H-indol-2-yl)-(4-methyl-piperazin-1-yl)-methanone]: 32.5 nM.
In the case of `Nc1cccc2cc(C(=O)N3CCNCC3)[nH]c12` [(7-Amino-1H-indol-2-yl)-piperazin-1-yl-methanone], the Ki was determined as 43 nM.
To `CN1CCN(C(=O)c2cc3cccc(Br)c3[nH]2)CC1` [(7-Bromo-1H-indol-2-yl)-(4-methyl-piperazin-1-yl)-methanone] belongs 55 nM.
